Results from ChEMBL document CHEMBL4402523, “2-Aminomethylene-5-sulfonylthiazole Inhibitors of Lysyl Oxidase (LOX) and LOXL2 Show Significant Efficacy in Delaying Tumor Growth” (J Med Chem, 2020).
Calls of active or inactive are those of the source. The rule behind the calls is not given here.

Assays:
[1] = Inhibition of pig skin-derived LOX using cadaverine hydrochloride as substrate preincubated for 1 hr followed by substrate addition by ROS-Glo assay; set-up: species or system Sus scrofa
[2] = target: T1, Lysyl oxidase homolog 2 (Homo sapiens) (UniProt Q9Y4K0); experiment: Reversible inhibition of human C-terminal His10-tagged LOXL2 (Met1 to Gln774 residues) expressed in mouse NS0 cells assessed as enzyme residual activity at 10 times IC50 using cadaverine hydrochloride as substrate preincubated for 1 hr followed by 100-fold enzyme-compound mixture dilution in …; assay type: cell-based
T1 sequence (whole entry): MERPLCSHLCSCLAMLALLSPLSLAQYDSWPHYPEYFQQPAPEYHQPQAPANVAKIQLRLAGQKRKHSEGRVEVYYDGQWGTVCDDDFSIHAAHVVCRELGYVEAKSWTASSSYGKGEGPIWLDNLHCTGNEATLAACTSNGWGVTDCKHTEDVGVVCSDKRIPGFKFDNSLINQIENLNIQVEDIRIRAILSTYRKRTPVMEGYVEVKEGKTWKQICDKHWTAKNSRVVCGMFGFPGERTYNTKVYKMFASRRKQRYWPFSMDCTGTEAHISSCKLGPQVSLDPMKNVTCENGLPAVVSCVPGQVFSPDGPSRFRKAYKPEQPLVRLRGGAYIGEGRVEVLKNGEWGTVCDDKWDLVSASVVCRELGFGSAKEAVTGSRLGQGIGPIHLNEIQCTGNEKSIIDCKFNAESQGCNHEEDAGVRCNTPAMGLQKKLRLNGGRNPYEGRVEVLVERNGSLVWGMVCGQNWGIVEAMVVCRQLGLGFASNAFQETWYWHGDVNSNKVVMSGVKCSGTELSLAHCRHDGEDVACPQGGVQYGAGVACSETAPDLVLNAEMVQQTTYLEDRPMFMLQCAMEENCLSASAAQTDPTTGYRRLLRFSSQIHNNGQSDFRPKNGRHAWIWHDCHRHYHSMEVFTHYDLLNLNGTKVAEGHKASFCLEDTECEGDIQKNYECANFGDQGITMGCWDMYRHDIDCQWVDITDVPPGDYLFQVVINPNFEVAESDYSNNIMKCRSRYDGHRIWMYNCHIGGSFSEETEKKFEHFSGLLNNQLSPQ

[3] = Stability in CD1 mouse liver microsomes assessed as parent compound remaining at 10 uM measured after 30 mins by LC-MS/MS analysis; assay type: ADME, Microsome; conditions: read-out: Stability
[4] = Stability in Sprague-Dawley rat liver microsomes assessed as parent compound remaining at 10 uM measured after 30 mins by LC-MS/MS analysis; assay type: ADME, Microsome; conditions: read-out: Stability
[5] = Toxicity in MMTV-PyMT mouse breast cancer model assessed as death at 70 mg/kg, po administered once daily via gavage for 34 days; assay type: organism-based; conditions: in vivo, 816 h
[6] = tested on: Mus musculus; experiment: Antitumor activity against MMTV-PyMT mouse breast cancer model assessed as reduction in tumor growth at 70 mg/kg, po administered once daily via gavage for 34 days measured twice a week during compound dosing; assay type: functional, organism-based
[7] = Toxicity in MMTV-PyMT mouse breast cancer model assessed as change in body weight at 70 mg/kg, po administered once daily via gavage for 34 days; assay type: organism-based; conditions: in vivo, 816 h

Structure (SMILES): CS(=O)(=O)c1cc(Sc2cnc(CN)s2)cc(-c2ccccc2)c1
- IC50 [1]: 1.13 to 1.31 µM

Structure (SMILES): CS(=O)(=O)c1cc(-c2ccccc2)cc(S(=O)(=O)c2ccc(CN)s2)c1
- Activity [2]: 80%
- remaining at 0.5 h, 10 µM [3]: 64%

Structure (SMILES): CS(=O)(=O)c1cc(-c2ccccc2)cc(S(=O)(=O)c2csc(CN)n2)c1
- IC50 [1]: > 100 µM

Structure (SMILES): CCc1cc(-c2cnn(C)c2)cc(S(=O)(=O)c2cnc(CN)s2)c1
- remaining at 0.5 h, 10 µM [4]: 82%
- Activity [5]: Non-Toxic
- Activity [2]: 30%
- Activity [6]: Active
- remaining at 0.5 h, 10 µM [3]: 76%
- Activity [7]: Non-Toxic

Structure (SMILES): Cn1cc(-c2cc(S(C)(=O)=O)cc(S(=O)(=O)c3csc(CN)n3)c2)cn1
- IC50 [1]: > 100 µM

Structure (SMILES): Cn1cc(-c2cc(S(C)(=O)=O)cc(S(=O)(=O)c3cnc(CN)s3)c2)cn1
- IC50 [1]: 2.65 to 3.42 µM

Structure (SMILES): CS(=O)(=O)c1cc(-c2ccccc2)cc(-c2cnc(CN)s2)c1
- IC50 [1]: 46.5 to 52 µM
